The values that follow come from US20230257415A1, “COMPOUNDS FOR TREATING CNS DISORDERS” (SAGE THERAPEUTICS, INC., priority 2019, published 2023).

Where only a bound is given, the exact number is not on record here.

The target of this assay is GABAA receptor. Briefly: [35S]-TBPS binding assay, rat brain cortical membranes, in the presence of GABA. Conditions: inhibition of 3 nM [35S]-TBPS binding, 5 mM GABA, 90 min, room temp. As for the experimental part: [35S]-t-Butylbicyclophosphorothionate (TBPS) binding assays using rat brain cortical membranes in the presence of 5 mM GABA has been described (Gee et al, J. Pharmacol. Exp. Ther. 1987, 241, 346-353; Hawkinson et al, Mol. Pharmacol. 1994, 46, 977-985; Lewin, A.H et al., Mol. Pharmacol. 1989, 35, 189-194).
Briefly, cortices are rapidly removed following decapitation of carbon dioxide-anesthetized Sprague-Dawley rats (200-250 g). The cortices are homogenized in 10 volumes of ice-cold 0.32 M sucrose using a glass/teflon homogenizer and centrifuged at 1500 x g for 10 min at 4° C. The resultant supernatants are centrifuged at 10,000 x g for 20 min at 4° C. to obtain the P2 pellets. The P2 pellets are resuspended in 200 mM NaCl/50 mM Na-K phosphate pH 7.4 buffer and centrifuged at 10,000 x g for 10 min at 4° C. This washing procedure is repeated twice and the pellets are resuspended in 10 volumes of buffer. Aliquots ([…]) of the membrane suspensions are incubated with 3 nM [^35S]-TBPS and […] aliquots of test drug dissolved in dimethyl sulfoxide (DMSO) (final 0.5%) in the presence of 5 mM GABA. The incubation is brought to a final volume of 1.0 mL with buffer. […] Following a 90 min incubation at room temp, the assays are terminated by filtration through glass fiber filters (Schleicher and Schuell No. 32) using a cell harvester (Brandel) and rinsed three times with ice-cold buffer. Filter bound radioactivity is measured by liquid scintillation spectrometry. Non-linear curve fitting of the overall data for each drug averaged for each concentration is done using Prism (GraphPad). […] The concentration of test compound producing 50% inhibition (IC50) of specific binding and the maximal extent of inhibition (Imax) are determined for the individual experiments with the same model used for the overall data and then the means ± SEM.s of the individual experiments are calculated.
Various compounds are or can be screened to determine their potential as modulators of [^35S]-TBPS binding in vitro. These assays are or can be performed in accordance with the above.
The term IC50 denotes the concentration that gives 50% inhibition. For the molecule `CC[C@]12CC[C@@](C)(O)C[C@H]1CC[C@H]1[C@@H]3CCC[C@H](CNS(=O)(=O)c4ccccc4)[C@@]3(C)CC[C@@H]12` [Example 39, N-(((1S,4aS,4bS,6aR,8R,10aS,10bS,12aS)-10a-ethyl-8-hydroxy-8,12a-dimethyloctadecahydrochrysen-1-yl)methyl)benzenesulfonamide], the IC50 lay within 100 to 1000 nM.

Take `COC[C@@]1(O)CC[C@@H]2C3CC[C@]4(C)[C@@H]([C@H](C)NC(=O)c5ccc(F)cc5)CCC[C@H]4[C@@H]3CC[C@@H]2C1` (stereo partly drawn) [Example 45, 4-fluoro-N-((1S)-1-((1S,4aS,4bR,6aR,8R,10aS,12aS)-8-hydroxy-8-(methoxymethyl)-12a-methyloctadecahydrochrysen-1-yl)ethyl)benzamide]: the IC50 was 100 to 1000 nM.

As for `C[C@@H](Cn1cc(C#N)cn1)[C@H]1CC[C@H]2[C@@H]3CC=C4CC[C@](C)(O)CC[C@]4(C)[C@H]3CC[C@]12C` [Example 17, 1-((R)-2-((1R,3aS,3bS,8S,10aR,10bS,12aS)-8-hydroxy-8,10a,12a-trimethyl-1,2,3,3a,3b,4,6,7,8,9,10,10a,10b,11,12,12a-hexadecahydrocyclohepta[a]cyclopenta[f]naphthalen-1-yl)propyl)-1H-pyrazole-4-carbonitrile], the IC50 was less than 100 nM.

In the case of `C[C@H](Cn1cc(C#N)cn1)[C@H]1CCC[C@H]2[C@@H]3CC[C@@H]4C[C@](C)(O)CC[C@@H]4[C@H]3CC[C@]12C` [Example 1, 1-((S)-2-((1R,4aS,4bR,6aR,8R,10aS,10bR,12aS)-8-hydroxy-8,12a-dimethyloctadecahydrochrysen-1-yl)propyl)-1H-pyrazole-4-carbonitrile], the IC50 was less than 100 nM.

Consider `C[C@@H]1CC[C@H]([C@H](C)Cn2cc(C#N)cn2)[C@@]2(C)CC[C@H]3[C@@H](CC[C@@H]4C[C@](C)(O)CC[C@@H]43)[C@H]12` [Example 12, 1-((S)-2-((1R,4R,4aS,4bR,6aR,8R,10aS,10bR,12aR)-8-hydroxy-4,8,12a-trimethyloctadecahydrochrysen-1-yl)propyl)-1H-pyrazole-4-carbonitrile], for which the half-maximal inhibitory concentration (IC50) is less than 100 nM.
